Drawing on ChEMBL document CHEMBL1159177, “Novel A-ring cleaved analogs of oleanolic and ursolic acids which affect growth regulation in NRP.152 prostate cells” (Bioorg Med Chem Lett, 1997), this text covers IC50 for twelve compounds.

In general, IC50 refers to the concentration at which inhibition is half-maximal. High values mean lower potency, low ones higher potency.

The assay is described as follows: In vitro inhibitory concentration against cell proliferation of nonmalignant, nontumerigenic prostate cells (NRP.152). Type of assay: functional, cell-based. Particulars: Rattus norvegicus.
Regarding `C=C(C)[C@@H]1CC[C@]2(C)[C@H](CC=C3C4CC(C)(C)CC[C@]4(C(=O)O)CC[C@]32C)[C@@]1(C)CCC(=O)O` (some centres not stated), the IC50 is > 5 µM.
Consider `C[C@@H]1CC[C@]2(C(=O)O)CC[C@]3(C)C(=CC[C@@H]4[C@@]5(C)CC[C@H](O)C(C)(C)[C@@H]5CC[C@]43C)C2[C@H]1C` (some centres not stated), for which the IC50 is > 5 µM.
For the compound `C=C(C)[C@@H]1CC[C@]2(C)[C@H](CC=C3C4[C@@H](C)[C@H](C)CC[C@]4(C(=O)O)CC[C@]32C)[C@@]1(C)CCC#N` (some centres not stated), the IC50 is > 5 µM.
The result for `CC(C)[C@@H]1CC[C@]2(C)[C@H](CC=C3C4CC(C)(C)CC[C@]4(C(=O)O)CC[C@]32C)[C@@]1(C)CCCN` (some centres not stated) reads 0.7 µM.
Regarding `C=C(C)[C@@H]1CC[C@]2(C)[C@H](CC=C3C4CC(C)(C)CC[C@]4(C(=O)O)CC[C@]32C)[C@@]1(C)CCC=O` (some centres not stated), the IC50 is 1.5 µM. This IC50 lies about 2.1-fold higher than the previous one.
The result for `C=C(C)[C@@H]1CC[C@]2(C)[C@H](CC=C3C4CC(C)(C)CC[C@]4(C(=O)O)CC[C@]32C)[C@@]1(C)CCC#N` (some centres not stated) reads 3.8 µM; that for `CC(C)[C@@H]1CC[C@]2(C)[C@H](CC=C3C4[C@@H](C)[C@H](C)CC[C@]4(C(=O)O)CC[C@]32C)[C@@]1(C)CCCN` (some centres not stated), 0.3 µM; that for `C[C@@H]1CC[C@]2(C(=O)O)CC[C@]3(C)C(=CC[C@@H]4[C@@]5(C)CCC(=O)C(C)(C)[C@@H]5CC[C@]43C)C2[C@H]1C` (some centres not stated), > 5 µM.
The value for `C=C(C)[C@@H]1CC[C@]2(C)[C@H](CC=C3C4[C@@H](C)[C@H](C)CC[C@]4(C(=O)O)CC[C@]32C)[C@@]1(C)CCC(=O)O` (some centres not stated) was > 5 µM; that for `C=C(C)[C@@H]1CC[C@]2(C)[C@H](CC=C3C4[C@@H](C)[C@H](C)CC[C@]4(C(=O)O)CC[C@]32C)[C@@]1(C)CCC=O` (some centres not stated) was 2.4 µM; that for `CC1(C)CC[C@]2(C(=O)O)CC[C@]3(C)C(=CC[C@@H]4[C@@]5(C)CC[C@H](O)C(C)(C)[C@@H]5CC[C@]43C)[C@@H]2C1` [OLEANOLIC_ACID] was > 5 µM.
The result for `CC1(C)CC[C@]2(C(=O)O)CC[C@]3(C)C(=CC[C@@H]4[C@@]5(C)CCC(=O)C(C)(C)[C@@H]5CC[C@]43C)[C@@H]2C1` [OLEANONIC ACID] reads > 5 µM.
